# Measured values: patent US11959083B2, “Immunosuppression-reverting oligonucleotides inhibiting the expression of CD39” (Secarna Pharmaceuticals GmbH & Co. KG, priority 2016, dated 2024)
# l = locked nucleic acid (LNA); d = 2'-deoxy (DNA)
# Tests used:
# hCD39 mRNA = hCD39 mRNA knockdown efficacy screen in A-172 cells (single dose, gymnotic delivery, QuantiGene Singleplex); assay type: cell-based, human; details: 10 μM; for Mean hCD39 mRNA expression (relative to untreated cells set as 1): first screening round; for Mean hCD39 mRNA expression (relative to untreated cells set as 1) / Relative hCD39 mRNA expression (compared to non-treated cells): normalized to HPRT1; for Relative hCD39 mRNA expression (compared to non-treated cells): second screening round
# Outline: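 Antisense oligonucleotides given once at 10 μM without transfection reagent (gymnotic) to HDLM-2 or A-172 cells for 3 days. hCD39 mRNA measured by QuantiGene Singleplex, normalized to HPRT1 and expressed relative to untreated cells; triplicate means.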
# hCD39 protein = test: Concentration- and time-dependent hCD39 protein knockdown in HDLM-2 cells (flow cytometry); assay type: cell-based, human; details: for inhibition of hCD39 protein: HDLM-2 cells, three, four and six days, different concentrations; for Inhibition [%] (Protein/mRNA): HDLM-2, CD39 protein
# Description: FIG. 8 depicts concentration- and time-dependent CD39 protein knockdown by A04040H (SEQ ID No. 3) and A04045H (SEQ ID No. 4). Analysis of CD39 protein expression by flow cytometry in HDML-2 cells is given after treatment with the indicated antisense oligonucleotides for 3, 4 and 6 days. As treatment control, cells were treated with neg1 for 3, 4 and 6 days at the indicated concentrations. Relative expression compared to untreated control cells (=1) is depicted.
# HDLM-2 cells were therefore treated with different concentrations of the respective antisense oligonucleotide for three, four and six days, respectively. Protein expression was analyzed by flow cytometry using the CD39 antibody (clone A1) and 7-AAD to investigate viability. […] Table 13summarizes protein knockdown efficiency of the selected human CD39 antisense oligonucleotides A04040H (SEQ ID No. 3) and A04045H (SEQ ID No. 4) in HDLM-2 cells at different time points: […]
# hCD39 = test: ATP degradation in primary human CD8+ T cells after hCD39 knockdown (ATP Bioluminescence Assay); assay type: cell-based; details: for Relative ATP levels in supernatants of CD8+ T cells 30 minutes after addition of ATP: 5 μM oligonucleotide 6 days, medium = 1
# Description: FIG. 11A-11D show knockdown of hCD39 protein (FIG. 11A) and viability (FIG. 11B) of primary human CD8^+ T cells, isolated from peripheral blood using MACS. CD8^+ T cells were activated by plate-bound anti-human CD3 (OKT-3). Activated cells were treated with RPMI-1640 medium, medium supplemented with A04040H (SEQ ID No. 3), and medium supplemented with neg1 at 5 μM, respectively, for 6 days in total. After 3 days, medium was replaced with fresh medium containing 5 μM of A04040H (SEQ ID No. 3) and neg 1, respectively, and hCD39 protein knockdown efficacy (FIG. 11A) and viability (FIG. 11B) were analyzed on day 6 by flow cytometry. Residual hCD39 expression and viability (median of 7-AAD positive cells) is depicted compared to untreated cells (FIG. 11A-11B). The same day, cells were harvested, washed and re-plated at a constant cell number (150.000 cells/Well in a 96-Well plate) in triplicates. Then, 2 μM (FIG. 11C) or 20 μM (FIG. 11D) of ATP was added to cells or cell culture medium without cells and ATP concentration of cell supernatants or cell culture medium was determined after 30 min using the ATP Bioluminescence Assay Kit (Roche).
# Additionally, the effect of hCD39 knockdown on ATP degradation was also analyzed in primary human CD8^+ T cells (FIG. 11A-11D). Activated T cells were treated with 5 μM antisense oligonucleotide A04040H (SEQ ID No. 3) or the negative control oligonucleotide neg1 for 6 days (3+3). After 3 days, RPMI-1640 medium was replaced with fresh RPMI-1640 medium containing […] of antisense oligonucleotide. Protein knockdown efficacy (FIG. 11A) and viability (FIG. 11B) were analyzed after 6 days by flow cytometry. […] On day 6, cells were re-plated at a constant cell number and ATP was added at concentrations of 2 μM (FIG. 11C) or 20 μM (FIG. 11D). ATP concentration was measured in the cell supernatants or in cell culture medium after 30 min (Table 15).
substance,measurement,setting,value
"+C*+G*+T*T*T*A*G*G*C*T*A*T*G*T*A*+C*+T*+T (CGTTTAGGCTATGTACTT; chemistry not fully specified) [neg1, negative control antisense oligonucleotide not hybridizing with CD39, described in WO2014154843 A1, reference compound]",influence on the expression of hCD39,hCD39 mRNA,no negative influence on the expression of hCD39
same,Mean hCD39 mRNA expression (relative to untreated cells set as 1),hCD39 mRNA; 3 days,1.36
same,Relative hCD39 mRNA expression (compared to non-treated cells),hCD39 mRNA; 3 days,0.79
same,inhibition of hCD39 protein,hCD39 protein,no inhibitory effect
same,Relative ATP levels in supernatants of CD8+ T cells 30 minutes after addition of ATP,hCD39; Added ATP (2 μmol/1),0
same,Relative ATP levels in supernatants of CD8+ T cells 30 minutes after addition of ATP,hCD39; Added ATP (20 μmol/1),0.12
"+G*+T*+T*T*G*T*G*T*G*A*G*A*G*C*+T*+T (antisense GTTTGTGTGAGAGCTT; sugars from the 5' end l3 d11 l2, all phosphorothioate, methylation of C not given here) [A04040H]",Mean hCD39 mRNA expression (relative to untreated cells set as 1),hCD39 mRNA; 3 days,0.07
same,Relative hCD39 mRNA expression (compared to non-treated cells),hCD39 mRNA; 3 days,0.04
same,Residual hCD39 mRNA expression relative to untreated cells (set as 1),"hCD39 mRNA; 3 days, third screening round",0.05
same,Inhibition [%] (Protein/mRNA),"hCD39 protein; Day 3, 0.1 μM",46.73%
same,Inhibition [%] (Protein/mRNA),"hCD39 protein; Day 3, 0.5 μM",54.75%
same,Inhibition [%] (Protein/mRNA),"hCD39 protein; Day 3, 1 μM",60.56%
same,Inhibition [%] (Protein/mRNA),"hCD39 protein; Day 3, 10 μM",61.36%
same,Inhibition [%] (Protein/mRNA),"hCD39 protein; Day 4, 0.1 μM",70.73%
same,Inhibition [%] (Protein/mRNA),"hCD39 protein; Day 4, 0.5 μM",78.25%
same,Inhibition [%] (Protein/mRNA),"hCD39 protein; Day 4, 1 μM",76.96%
same,Inhibition [%] (Protein/mRNA),"hCD39 protein; Day 4, 10 μM",79.11%
same,Inhibition [%] (Protein/mRNA),"hCD39 protein; Day 6, 0.1 μM",87.37%
same,Inhibition [%] (Protein/mRNA),"hCD39 protein; Day 6, 0.5 μM",89.36%
same,Inhibition [%] (Protein/mRNA),"hCD39 protein; Day 6, 1 μM",84.12%
same,Inhibition [%] (Protein/mRNA),"hCD39 protein; Day 6, 10 μM",88.84%
same,inhibition of hCD39 protein,hCD39 protein,potent inhibition of hCD39 protein after all indicated time points
same,Relative ATP levels in supernatants of CD8+ T cells 30 minutes after addition of ATP,hCD39; Added ATP (2 μmol/1),0.59
same,Relative ATP levels in supernatants of CD8+ T cells 30 minutes after addition of ATP,hCD39; Added ATP (20 μmol/1),0.89
same,ATP concentration compared to neg 1 treated cells,"hCD39; primary human CD8+ T cells, 5 μM, 6 days",about 7 ×
same,ATP degradation efficacy,"hCD39; primary human CD8+ T cells, 5 μM, 6 days, 2 or 20 μM ATP, 30 min",nearly abolished
